Experimental findings from patent US11549950B2, “Cryptic metabolites and method for activating silent biosynthetic gene clusters in diverse microorganisms” (The Trustees of Princeton University, priority 2017, dated 2023) are described below.

What all share (assay): Antibacterial bioactivity (MIC) of keratinimicins, Table 1
The test system of one assay is S. aureus MRSA. The class given is cell-based, Staphylococcus aureus. As to the method:
(§1) To determine antibacterial and antiviral performance, assays were performed. In one example, antibacterial assays were carried out by Micromyx, LLC in accordance with methods from the Clinical and Laboratory Standards Institute. Minimal inhibitory concentrations were determined with the following strains: S. aureus ATCC 29213, S. aureus MMX 2011, S. pneumoniae ATCC 49619, S. pyogenes MMX 6253, S. agalactiae MMX 6189, E. faecalis ATCC 29212, E. faecalis MMX 486, B. subtilis ATCC 6633, E. coli ATCC 25922, K. pneumoniae MMX 214, P. aeruginosa ATCC 27853, A. baumannii ATCC 19606, V. cholerae BAA-2163, C. difficile ATCC 700057, and B. fragilis ATCC 25285.
(§2) These compounds are bioactive. In some instances, the compounds show activity against gram-positive bacteria. For example, although they may also show activity against gram-negative targets, the bioactivity of Keratinimicin B and C (FIGS. 21B and 21C) were tested against various gram-positive targets.

For another assay, the system named is S. aureus MSSA. Format: cell-based, Staphylococcus aureus. As to the method:
as §1, §2

The next assay relates to S. pneumoniae. Format: cell-based, Streptococcus pneumoniae. As to the method: as §1, §2
The next assay has as its system S. pyogenes. The class given is cell-based, Streptococcus pyogenes. On the procedure:
as §1, §2

Another assay concerns S. agalactiae. Format: cell-based, Streptococcus agalactiae. On the procedure: as §1, §2
The subject of another assay is E. faecalis VRE. The class given is cell-based, Enterococcus faecalis. On the procedure:
as §1, §2

The next assay has as its system E. faecalis VSE. Format: cell-based, Enterococcus faecalis. On the procedure:
as §1, §2

In a further assay the test system is C. difficile. The class given is cell-based, Clostridium difficile. On the procedure: as §1, §2

Consider `CO[C@H]1[C@H](C)O[C@@H](O[C@@H]2c3ccc(c(Cl)c3)Oc3cc4cc(c3O[C@@H]3O[C@H](CO)[C@@H](O)[C@H](O)[C@H]3O[C@H]3C[C@H](N)[C@@H](O)C(C)O3)Oc3ccc(cc3)[C@@H](O)[C@@H](NC(=O)[C@H](N)c3ccc(O)c(Cl)c3)C(=O)N[C@@H](Cc3ccccc3)C(=O)N[C@H]4C(=O)N[C@H]3C(=O)N[C@@H]2C(=O)N[C@H](C(=O)O)c2cc(O)cc(O)c2-c2cc3ccc2O)C[C@@H]1N` (some centres unmarked) [Keratinimicin B], for which the “Bioactivity (minimal inhibitory concentration)” value in the assay on S. aureus MRSA was 4 µg/mL; in the assay on S. aureus MSSA, 8 µg/mL; in the assay on S. pneumoniae, 0.25 µg/mL; in the assay on S. pyogenes, 0.5 µg/mL; with S. agalactiae it was 1 µg/mL; in the assay on E. faecalis VRE, above 64 µg/mL. For the same compound, the “Bioactivity (minimal inhibitory concentration)” value in the assay on E. faecalis VSE was 4 µg/mL; with C. difficile, 0.5 µg/mL.
